Laboratory results reported in patent US8841312B2, “Fused pyridine, pyrimidine and triazine compounds as cell cycle inhibitors” (Amgen Inc., priority 2007, dated 2014).

Columns and labels:
Cdk4/CyclinD1 = Cdk4/CyclinD1 (Homo sapiens (Human), UniProt P11802); assay: Cdk4 kinase inhibition assay with recombinant Cdk4/CyclinD1, Rb substrate, [33P]-ATP filter plate; format: biochemical; conditions: 25 μM ATP, read-out: Cdk 4 IC50
Outline: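 Recombinant Cdk4/CyclinD1 or Cdk6/CyclinD3 phosphorylated Rb protein with [33P]-ATP for 1 h at room temperature. Protein was TCA-precipitated on filter plates and bound radioactivity counted. IC50 by nonlinear regression.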

Cdk6/CyclinD3 = Cdk6/CyclinD3 (Homo sapiens (Human), UniProt Q00534); assay: Cdk6 kinase inhibition assay with recombinant Cdk6/CyclinD3, Rb substrate, [33P]-ATP filter plate; format: biochemical; conditions: 25 μM ATP, read-out: Cdk 6 IC50
Cdk6/CyclinD3, sequence (Q00534 whole entry): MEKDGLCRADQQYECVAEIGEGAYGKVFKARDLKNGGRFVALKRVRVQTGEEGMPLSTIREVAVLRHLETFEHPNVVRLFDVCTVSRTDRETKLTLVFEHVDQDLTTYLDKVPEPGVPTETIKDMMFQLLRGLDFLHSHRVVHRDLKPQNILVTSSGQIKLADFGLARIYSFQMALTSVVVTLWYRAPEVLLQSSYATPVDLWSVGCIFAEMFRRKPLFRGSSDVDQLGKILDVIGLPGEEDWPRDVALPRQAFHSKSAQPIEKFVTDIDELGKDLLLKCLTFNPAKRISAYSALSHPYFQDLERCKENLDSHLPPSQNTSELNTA
Cdk6/CyclinD3, sequence (P30281 whole entry partner): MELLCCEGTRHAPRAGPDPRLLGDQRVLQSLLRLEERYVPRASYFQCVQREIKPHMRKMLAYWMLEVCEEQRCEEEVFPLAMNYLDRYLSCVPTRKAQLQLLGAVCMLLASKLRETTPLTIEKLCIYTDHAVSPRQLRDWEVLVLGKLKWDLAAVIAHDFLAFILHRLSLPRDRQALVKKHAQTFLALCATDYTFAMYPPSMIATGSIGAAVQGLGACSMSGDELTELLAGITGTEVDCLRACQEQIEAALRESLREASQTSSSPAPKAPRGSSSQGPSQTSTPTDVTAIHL
Protocol: The Cdk4 and Cdk6 inhibitory activity of the compounds is measured with a kinase inhibition assay using recombinant Cdk4/CyclinD1 or Cdk6/CyclinD3 protein complexes. The protein substrate used in the assay is the retinoblastoma protein (Rb). The kinase reactions are carried out in a 96-well filter plate (MSDV N6B50, Millipore). […] The mixture is incubated at room temperature for 1 hour and the proteins precipitated with an equal volume of 20% TCA. The plates are washed with 10% TCA according to the manufacturer's instruction and dried at room temperature. The amount of the phosphorylated Rb is determined with a TopCount (PerkinElmer). The IC50 of a compound is determined by nonlinear regression curve fitting using software program Prism 5 (GraphPad Software).

Cdk4/CyclinD1, sequence (P11802 whole entry): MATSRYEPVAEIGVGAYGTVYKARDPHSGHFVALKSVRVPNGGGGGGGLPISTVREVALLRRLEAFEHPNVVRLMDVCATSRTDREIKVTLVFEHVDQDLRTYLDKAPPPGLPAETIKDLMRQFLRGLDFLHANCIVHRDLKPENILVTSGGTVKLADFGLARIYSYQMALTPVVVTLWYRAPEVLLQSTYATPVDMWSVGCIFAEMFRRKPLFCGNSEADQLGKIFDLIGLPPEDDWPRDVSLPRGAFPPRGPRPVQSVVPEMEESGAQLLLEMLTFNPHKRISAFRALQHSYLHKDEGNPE
Cdk4/CyclinD1, sequence (P24385 whole entry partner): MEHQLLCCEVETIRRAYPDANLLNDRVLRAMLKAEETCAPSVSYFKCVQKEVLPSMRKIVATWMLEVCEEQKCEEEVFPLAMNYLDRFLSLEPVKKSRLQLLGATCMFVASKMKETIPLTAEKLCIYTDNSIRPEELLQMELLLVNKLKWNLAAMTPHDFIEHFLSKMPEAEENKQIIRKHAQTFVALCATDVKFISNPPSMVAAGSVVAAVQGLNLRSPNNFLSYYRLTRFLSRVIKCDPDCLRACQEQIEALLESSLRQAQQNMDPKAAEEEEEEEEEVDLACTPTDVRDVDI

Molecule `CN(C)[C@@H]1CCN(c2ccc(Nc3ncc4c5ccncc5n(C5CCCC5)c4n3)nc2)C1` [Example 289] has an IC50 (Cdk4/CyclinD1) of 7.2 nM and an IC50 (Cdk6/CyclinD3) of 40 nM.
`c1cc2c3cnc(Nc4ccc(N5CCNCC5)cc4)nc3n(C3CCCC3)c2cn1` [Example 3, (9-Cyclopentyl-9H-pyrido[4′,3′:4,5]pyrrolo[2,3-d]pyrimidin-2-yl)-(4-piperazin-1-yl-phenyl)-amine] gave an IC50 (Cdk4/CyclinD1) of 0.45 nM and an IC50 (Cdk6/CyclinD3) of 2.9 nM.
Molecule `O=S1(=O)CCN(c2ccc(Nc3ncc4c5ccncc5n(C5CCCC5)c4n3)nn2)CC1` [Example 94] has an IC50 (Cdk4/CyclinD1) of 4.9 nM and an IC50 (Cdk6/CyclinD3) of 9.2 nM.
With `CC(C)(CO)Cn1c2cnccc2c2cnc(Nc3ccc(N4CCNCC4)cn3)nc21` [Example 45, 2,2-Dimethyl-3-[2-(5-piperazin-1-yl-pyridin-2-ylamino)-pyrido[4′,3′:4,5]pyrrolo[2,3-d]pyrimidin-9-yl]-propan-1-ol] the IC50 (Cdk4/CyclinD1) was 73 nM and the IC50 (Cdk6/CyclinD3) was 129 nM.
For `OCCCNc1ccc(Nc2ncc3c4ccncc4n(C4CCCC4)c3n2)nn1` [Example 297], the IC50 (Cdk4/CyclinD1) was 1.4 nM and the IC50 (Cdk6/CyclinD3) was 13 nM.
In the case of `CC[C@@H](C)n1c2cnccc2c2cnc(Nc3ccc(N4CC[C@@H](O)C4)cn3)nc21` [Example 322], the IC50 (Cdk4/CyclinD1) is reported as 15 nM and the IC50 (Cdk6/CyclinD3) is reported as 50 nM.
Work on `O[C@@H]1CCCN(C2CCN(c3ccc(Nc4ncc5c6ccncc6n(C6CCCC6)c5n4)nn3)CC2)C1` [Example 451] yielded an IC50 (Cdk4/CyclinD1) of 13 nM and an IC50 (Cdk6/CyclinD3) of 18 nM.
For `NC1CCN(c2ccc(Nc3ncc4c5ccncc5n(C5CCCC5)c4n3)nc2)CC1` [Example 11], the IC50 (Cdk4/CyclinD1) was 3.1 nM and the IC50 (Cdk6/CyclinD3) was 10 nM.
`OCC1(n2c3cnccc3c3cnc(Nc4ccc(N5CCNCC5)cn4)nc32)CCCC1` [Example 44, {1-[2-(5-piperazin-1-yl-pyridin-2-ylamino)-pyrido[4′,3′:4,5]pyrrolo[2,3-d]pyrimidin-9-yl]-cyclopentyl}-methanol] gave an IC50 (Cdk4/CyclinD1) of 11 nM and an IC50 (Cdk6/CyclinD3) of 25 nM.
Molecule `CC[C@@H](C)n1c2cnccc2c2cnc(Nc3ccc(N4CCN[C@@H](C)C4)nn3)nc21` [Example 317] has an IC50 (Cdk4/CyclinD1) of 12 nM and an IC50 (Cdk6/CyclinD3) of 21 nM.
`CN(C)C1CCN(S(=O)(=O)c2ccc(Nc3ncc4c5ccncc5n(C5CCCC5)c4n3)nc2)CC1` [Example 229, 9-cyclopentyl-N-(5-((4-(dimethylamino)-1-piperidinyl)sulfonyl)-2-pyridinyl)-9H-pyrido[4′,3′:4,5]pyrrolo[2,3-d]pyrimidin-2-amine] was tested, and the IC50 (Cdk4/CyclinD1) was 21.2 nM and the IC50 (Cdk6/CyclinD3) was 20.5 nM.
For `C[C@H]1CN(c2ccc(Nc3ncc4c5ccncc5n(C5CCCC5)c4n3)nn2)CCN1` [Example 9], the IC50 (Cdk4/CyclinD1) was 3.8 nM and the IC50 (Cdk6/CyclinD3) was 19.5 nM.
`C[C@@H](CO)NC1CCN(c2ccc(Nc3ncc4c5ccncc5n(C5CCCC5)c4n3)nc2)CC1` [Example 475] was tested, and the IC50 (Cdk4/CyclinD1) was 2.6 nM and the IC50 (Cdk6/CyclinD3) was 8 nM.
`c1cnc2c(c1)c1cnc(Nc3ccc(N4CCNCC4)cn3)nc1n2C1CCCC1` [Example 35, (9-Cyclopentyl-9H-pyrido[3′,2′:4,5]pyrrolo[2,3-d]pyrimidin-2-yl)-(5-piperazin-1-yl-pyridin-2-yl)-amine] was tested, and the IC50 (Cdk4/CyclinD1) was 8.2 nM and the IC50 (Cdk6/CyclinD3) was 21 nM.
With `O=S1(=O)CCC(Nc2ccc(Nc3ncc4c5ccncc5n(C5CCCC5)c4n3)nn2)C1` (stereo not shown) [Example 93] the IC50 (Cdk4/CyclinD1) was 3.1 nM and the IC50 (Cdk6/CyclinD3) was 15.9 nM.
`COc1cc(-c2ccc(Nc3ncc4c5ccncc5n(C5CCCC5)c4n3)nn2)ccn1` [Example 262, 9-Cyclopentyl-N-(6-(2-methoxy-4-pyridinyl)-3-pyridazinyl)-9H-pyrido[4′,3′:4,5]pyrrolo[2,3-d]pyrimidin-2-amine] gave an IC50 (Cdk4/CyclinD1) of 32 nM and an IC50 (Cdk6/CyclinD3) of 38 nM.
For `c1cc2c3cnc(Nc4ccc(NCC5CCNC5)nn4)nc3n(C3CCCC3)c2cn1` (stereo not shown) [Example 98], the IC50 (Cdk4/CyclinD1) was 2.5 nM and the IC50 (Cdk6/CyclinD3) was 26.6 nM.
`C[C@@H]1CN(c2ccc(Nc3ncc4c5ccncc5n(C5CCCC5)c4n3)nn2)CCN1` [Example 4] gave an IC50 (Cdk4/CyclinD1) of 3.9 nM and an IC50 (Cdk6/CyclinD3) of 11.5 nM.
For `OC1CCN(C2CCN(c3ccc(Nc4ncc5c6ccncc6n(C6CCCC6)c5n4)nn3)CC2)CC1` [Example 455], the IC50 (Cdk4/CyclinD1) was 7 nM and the IC50 (Cdk6/CyclinD3) was 9 nM.
In the case of `CN(CCO)C1CCN(c2ccc(Nc3ncc4c5ccncc5n(C5CCCC5)c4n3)nn2)CC1` [Example 440], the IC50 (Cdk4/CyclinD1) is reported as 5.8 nM and the IC50 (Cdk6/CyclinD3) is reported as 14 nM.
`c1cc2c3cnc(Nc4ccc(N5CCC(NC6CC6)CC5)cn4)nc3n(C3CCCC3)c2cn1` [Example 465] gave an IC50 (Cdk4/CyclinD1) of 4.1 nM and an IC50 (Cdk6/CyclinD3) of 12 nM.
Molecule `OC1CCCN(Cc2ccc(Nc3ncc4c5ccncc5n(C5CCCC5)c4n3)nc2)C1` (stereo not shown) [Example 216, 1-((6-((9-cyclopentyl-9H-pyrido[4′,3′:4,5]pyrrolo[2,3-d]pyrimidin-2-yl)amino)-3-pyridinyl)methyl)-3-piperidinol] has an IC50 (Cdk4/CyclinD1) of 10 nM and an IC50 (Cdk6/CyclinD3) of 15 nM.
`c1cnc2c(c1)c1cnc(Nc3ccc(N4CCNCC4)cc3)nc1n2C1CCCC1` [Example 36, (9-Cyclopentyl-9H-pyrido[3′,2′:4,5]pyrrolo[2,3-d]pyrimidin-2-yl)-(4-piperazin-1-yl-phenyl)-amine] showed an IC50 (Cdk4/CyclinD1) of 0.83 nM and an IC50 (Cdk6/CyclinD3) of 4.4 nM.
Molecule `c1cc2c3cnc(Nc4ccc(N[C@@H]5CCNC5)cn4)nc3n(C3CCCC3)c2cn1` [Example 63] has an IC50 (Cdk4/CyclinD1) of 3.4 nM and an IC50 (Cdk6/CyclinD3) of 20 nM.
With `O=S1(=O)CCC(Nc2ccc(Nc3ncc4c5ccncc5n(C5CCCC5)c4n3)nc2)C1` (stereo not shown) [Example 65] the IC50 (Cdk4/CyclinD1) was 9.6 nM and the IC50 (Cdk6/CyclinD3) was 24 nM.
Work on `OCCNc1ccc(Nc2ncc3c4ccncc4n(C4CCCC4)c3n2)nn1` [Example 292] yielded an IC50 (Cdk4/CyclinD1) of 4.9 nM and an IC50 (Cdk6/CyclinD3) of 16.1 nM.
`CC1(C)CN(c2ccc(Nc3ncc4c5ccncc5n(C5CCC5)c4n3)nn2)CCN1` [Example 348] showed an IC50 (Cdk4/CyclinD1) of 17 nM and an IC50 (Cdk6/CyclinD3) of 12 nM.
Work on `C[C@@H](O)Cn1c2cnccc2c2cnc(Nc3ccc(N4CCNCC4)cn3)nc21` [Example 356] yielded an IC50 (Cdk4/CyclinD1) of 360 nM and an IC50 (Cdk6/CyclinD3) of 370 nM.
`c1cc2c3cnc(Nc4ccc(N5CCCCC5)nn4)nc3n(C3CCCC3)c2cn1` [Example 107] gave an IC50 (Cdk4/CyclinD1) of 8.4 nM and an IC50 (Cdk6/CyclinD3) of 48 nM.
In the case of `C[C@@H](CO)n1c2cnccc2c2cnc(Nc3ccc(N4CCNCC4)cn3)nc21` [Example 369], the IC50 (Cdk4/CyclinD1) is reported as 45 nM and the IC50 (Cdk6/CyclinD3) is reported as 29 nM.
In the case of `c1cc2c3cnc(Nc4ccc(N5CCCNCC5)cn4)nc3n(C3CCCC3)c2cn1` [Example 48, 9-cyclopentyl-N-(5-(1,4-diazepan-1-yl)-2-pyridinyl)-9H-pyrido[4′,3′:4,5]pyrrolo[2,3-d]pyrimidin-2-amine], the IC50 (Cdk4/CyclinD1) is reported as 1.6 nM and the IC50 (Cdk6/CyclinD3) is reported as 5.6 nM.
`CC[C@@H](C)n1c2cnccc2c2cnc(Nc3ccc(N4CCNC(C)(C)C4)nn3)nc21` [Example 324] was tested, and the IC50 (Cdk4/CyclinD1) was 11 nM and the IC50 (Cdk6/CyclinD3) was 20 nM.
Work on `c1cc2c3cnc(Nc4ccc(N5CCNCC5)cn4)nc3n(C3CCCC3)c2nn1` [Example 200, 9-Cyclopentyl-N-(5-(1-piperazinyl)-2-pyridinyl)-9H-pyrimido[5′,4′:4,5]pyrrolo[2,3-c]pyridazin-7-amine] yielded an IC50 (Cdk4/CyclinD1) of 36 nM and an IC50 (Cdk6/CyclinD3) of 13 nM.
For `Oc1ccc2c3cnc(Nc4ccc(N5CCNCC5)cn4)nc3n(C3CCCC3)c2n1` [Example 183, 9-Cyclopentyl-2-((5-(1-piperazinyl)-2-pyridinyl)amino)-9H-pyrido[3′,2′:4,5]pyrrolo[2,3-d]pyrimidin-7-ol], the IC50 (Cdk4/CyclinD1) was 142 nM and the IC50 (Cdk6/CyclinD3) was 104 nM.
Work on `C[C@H](O)CNc1ccc(Nc2ncc3c4ccncc4n(C4CCCC4)c3n2)nn1` [Example 294] yielded an IC50 (Cdk4/CyclinD1) of 5.9 nM and an IC50 (Cdk6/CyclinD3) of 26 nM.
For `CC[C@@H](C)n1c2cnccc2c2cnc(Nc3ccc(N4CCNC(C)(C)C4)cn3)nc21` [Example 342], the IC50 (Cdk4/CyclinD1) was 87 nM and the IC50 (Cdk6/CyclinD3) was 77 nM.
`OCCNC1CCN(c2ccc(Nc3ncc4c5ccncc5n(C5CCCC5)c4n3)nn2)CC1` [Example 438] was tested, and the IC50 (Cdk4/CyclinD1) was 4.2 nM and the IC50 (Cdk6/CyclinD3) was 12 nM.
`C[C@H]1CN(c2ccc(Nc3ncc4c5ccncc5n(C5CCC5)c4n3)nc2)CCN1` [Example 344] showed an IC50 (Cdk4/CyclinD1) of 16 nM and an IC50 (Cdk6/CyclinD3) of 10 nM.
Molecule `c1ccc2c(c1)c1cnc(Nc3ccc(N4CCNCC4)cn3)nc1n2C1CCCC1` [Example 37, (9-Cyclopentyl-9H-pyrimido[4,5-b]indol-2-yl)-(5-piperazin-1-yl-pyridin-2-yl)-amine] has an IC50 (Cdk4/CyclinD1) of 4.3 nM and an IC50 (Cdk6/CyclinD3) of 1.2 nM.
In the case of `c1cc2c3cnc(Nc4ccc(C5CCNCC5)cn4)nc3n(C3CCCC3)c2cn1` [Example 257, 9-cyclopentyl-N-(5-(4-piperidinyl)-2-pyridinyl)-9H-pyrido[4′,3′:4,5]pyrrolo[2,3-d]pyrimidin-2-amine], the IC50 (Cdk4/CyclinD1) is reported as 7 nM and the IC50 (Cdk6/CyclinD3) is reported as 5.3 nM.
`C[C@H]1CN(c2ccc(Nc3ncc4c5ccccc5n(C5CCCC5)c4n3)nn2)CCN1` [Example 302] gave an IC50 (Cdk4/CyclinD1) of 47 nM and an IC50 (Cdk6/CyclinD3) of 23 nM.
Work on `CCC(C)(C)n1c2cnccc2c2cnc(Nc3ccc(N4CCNCC4)cn3)nc21` [Example 157, 9-(1,1-dimethylpropyl)-N-(5-(1-piperazinyl)-2-pyridinyl)-9H-pyrido-[4′,3′:4,5]pyrrolo[2,3-d]pyrimidin-2-amine] yielded an IC50 (Cdk4/CyclinD1) of 30 nM and an IC50 (Cdk6/CyclinD3) of 25 nM.
In the case of `CN(C)C1CCN(C(=O)c2ccc(Nc3ncc4c5ccncc5n(C5CCCC5)c4n3)nc2)CC1` [Example 230, 9-Cyclopentyl-N-(5-((4-(dimethylamino)-1-piperidinyl)carbonyl)-2-pyridinyl)-9H-pyrido[4′,3′:4,5]pyrrolo[2,3-d]pyrimidin-2-amine], the IC50 (Cdk4/CyclinD1) is reported as 16 nM and the IC50 (Cdk6/CyclinD3) is reported as 16 nM.
Molecule `COc1ccc(-n2c3cnccc3c3cnc(Nc4ccc(N5CCNCC5)cn4)nc32)cc1` [Example 16] has an IC50 (Cdk4/CyclinD1) of 10 nM and an IC50 (Cdk6/CyclinD3) of 21 nM.
With `CN(C)C1CCN(c2ccc(Nc3ncc4c5ccncc5n(C5CCCC5)c4n3)nn2)CC1` [Example 13] the IC50 (Cdk4/CyclinD1) was 1 nM and the IC50 (Cdk6/CyclinD3) was 2.6 nM.
Molecule `CN(CCO)C1CCN(c2ccc(Nc3ncc4c5ccncc5n(C5CCCC5)c4n3)nc2)CC1` [Example 457] has an IC50 (Cdk4/CyclinD1) of 19 nM and an IC50 (Cdk6/CyclinD3) of 37 nM.
`c1cc2c3cnc(Nc4ccc(NC5CCNCC5)nn4)nc3n(C3CCCC3)c2cn1` [Example 96] gave an IC50 (Cdk4/CyclinD1) of 16.2 nM and an IC50 (Cdk6/CyclinD3) of 12.4 nM.
